The source made the active and inactive calls. The rule behind the calls is not given here.
Assays:
[1] = molecular target: T1, Histone-lysine N-methyltransferase EHMT2 (Homo sapiens, UniProt Q96KQ7); assay: Inhibition of G9a (unknown origin) by AlphaLISA assay
T1 sequence (Q96KQ7 whole entry): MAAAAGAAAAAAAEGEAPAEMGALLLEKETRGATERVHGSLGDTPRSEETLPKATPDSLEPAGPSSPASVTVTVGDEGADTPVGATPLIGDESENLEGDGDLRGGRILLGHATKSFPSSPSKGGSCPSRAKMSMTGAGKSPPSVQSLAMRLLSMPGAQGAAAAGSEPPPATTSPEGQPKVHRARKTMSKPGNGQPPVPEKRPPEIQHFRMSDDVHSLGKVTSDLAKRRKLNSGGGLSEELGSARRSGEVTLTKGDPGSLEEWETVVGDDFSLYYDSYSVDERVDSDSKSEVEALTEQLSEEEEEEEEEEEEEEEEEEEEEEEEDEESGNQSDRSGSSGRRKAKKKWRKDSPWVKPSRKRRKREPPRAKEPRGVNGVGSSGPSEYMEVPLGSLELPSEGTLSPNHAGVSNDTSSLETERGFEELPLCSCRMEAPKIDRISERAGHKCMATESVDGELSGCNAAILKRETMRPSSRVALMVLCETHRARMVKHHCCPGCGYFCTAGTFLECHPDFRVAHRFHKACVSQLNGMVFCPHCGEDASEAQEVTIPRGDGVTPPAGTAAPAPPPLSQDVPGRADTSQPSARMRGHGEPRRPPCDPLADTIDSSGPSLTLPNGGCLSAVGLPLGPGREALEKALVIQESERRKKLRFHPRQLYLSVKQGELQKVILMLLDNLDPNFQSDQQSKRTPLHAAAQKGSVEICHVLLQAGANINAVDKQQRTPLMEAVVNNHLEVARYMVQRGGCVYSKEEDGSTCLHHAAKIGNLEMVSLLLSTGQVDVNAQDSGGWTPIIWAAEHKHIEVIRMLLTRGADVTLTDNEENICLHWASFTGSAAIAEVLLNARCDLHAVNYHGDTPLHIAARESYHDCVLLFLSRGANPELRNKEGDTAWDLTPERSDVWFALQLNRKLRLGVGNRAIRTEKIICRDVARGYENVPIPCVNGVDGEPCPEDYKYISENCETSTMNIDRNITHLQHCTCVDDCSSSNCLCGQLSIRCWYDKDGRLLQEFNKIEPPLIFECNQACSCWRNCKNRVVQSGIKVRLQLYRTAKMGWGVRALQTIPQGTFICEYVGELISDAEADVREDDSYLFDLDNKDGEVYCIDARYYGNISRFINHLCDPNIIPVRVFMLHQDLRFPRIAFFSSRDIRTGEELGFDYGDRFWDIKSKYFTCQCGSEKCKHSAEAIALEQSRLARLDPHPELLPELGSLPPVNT

MDA-MB-231 [2] = assay: Antiproliferative activity against human MDA-MB-231 cells assessed as cell viability measured after 24 hrs by CCK-8 assay; format: functional, cell-based; conditions: MDA-MB-231, 24 h
PANC-1 = assay: Antiproliferative activity against human PANC-1 cells assessed as cell viability measured after 24 hrs by CCK-8 assay; format: functional, cell-based; conditions: PANC-1, 24 h
[3] = molecular target: T2, Histone-lysine N-methyltransferase EHMT1 (Homo sapiens, UniProt Q9H9B1); assay: Inhibition of GLP (unknown origin)
T2 sequence (Q9H9B1 whole entry): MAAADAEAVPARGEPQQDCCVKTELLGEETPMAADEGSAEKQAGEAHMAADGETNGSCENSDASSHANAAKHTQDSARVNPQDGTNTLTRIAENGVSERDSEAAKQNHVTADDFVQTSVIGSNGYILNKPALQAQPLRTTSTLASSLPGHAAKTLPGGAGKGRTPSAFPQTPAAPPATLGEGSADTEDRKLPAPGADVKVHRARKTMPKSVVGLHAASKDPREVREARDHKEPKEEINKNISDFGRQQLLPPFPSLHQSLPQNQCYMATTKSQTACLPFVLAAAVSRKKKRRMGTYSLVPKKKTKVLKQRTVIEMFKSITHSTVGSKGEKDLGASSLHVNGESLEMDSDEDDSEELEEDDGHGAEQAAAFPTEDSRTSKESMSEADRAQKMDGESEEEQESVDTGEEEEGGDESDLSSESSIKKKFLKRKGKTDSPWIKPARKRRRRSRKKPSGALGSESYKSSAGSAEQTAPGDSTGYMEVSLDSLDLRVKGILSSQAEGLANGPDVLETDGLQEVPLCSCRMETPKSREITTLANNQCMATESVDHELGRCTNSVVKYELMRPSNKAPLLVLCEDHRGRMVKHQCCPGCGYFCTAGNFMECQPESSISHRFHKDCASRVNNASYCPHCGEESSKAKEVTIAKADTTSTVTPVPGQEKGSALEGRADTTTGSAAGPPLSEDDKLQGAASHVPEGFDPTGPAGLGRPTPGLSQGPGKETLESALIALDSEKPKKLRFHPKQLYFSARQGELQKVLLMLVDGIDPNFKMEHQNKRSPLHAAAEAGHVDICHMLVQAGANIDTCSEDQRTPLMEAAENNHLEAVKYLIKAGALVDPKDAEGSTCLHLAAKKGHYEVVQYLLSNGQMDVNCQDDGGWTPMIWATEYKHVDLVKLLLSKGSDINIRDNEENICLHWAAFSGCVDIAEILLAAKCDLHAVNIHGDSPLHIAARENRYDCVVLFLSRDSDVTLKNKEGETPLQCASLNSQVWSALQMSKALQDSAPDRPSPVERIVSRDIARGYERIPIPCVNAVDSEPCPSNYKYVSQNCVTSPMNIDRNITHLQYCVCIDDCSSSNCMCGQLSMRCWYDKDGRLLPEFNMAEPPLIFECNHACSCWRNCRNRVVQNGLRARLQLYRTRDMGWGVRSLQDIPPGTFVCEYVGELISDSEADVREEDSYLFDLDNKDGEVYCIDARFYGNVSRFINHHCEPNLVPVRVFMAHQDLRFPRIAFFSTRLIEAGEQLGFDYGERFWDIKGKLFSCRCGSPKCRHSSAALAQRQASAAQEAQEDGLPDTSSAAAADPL

[4] = molecular target: T1, Histone-lysine N-methyltransferase EHMT2; assay: Inhibition of human recombinant G9a using H3-SAM as substrate
[5] = Metabolic stability in mouse liver microsomes assessed as half life at 0.1 uM measured upto 60 mins by LC-MS/MS analysis; format: ADME, Microsome
MDA-MB-231 [6] = assay: Reduction in H3K9me2 level in human MDA-MB-231 cells at 10 uM by Western blot analysis; format: functional, cell-based; conditions: time 24-96 hrs, TDE = time-dependent effect
MDA-MB-231 [7] = assay: Reduction in H3K9me2 level in human MDA-MB-231 cells at 10 uM incubated for 48 hrs followed replaced with fresh medium measured after 24 hrs by Western blot analysis; format: functional, cell-based
[8] = molecular target: T3, Histone-lysine N-methyltransferase EHMT2 (Homo sapiens) (UniProt Q96KQ7); assay: Binding affinity to G9a in human MDA-MB-231 cells assessed as protein stabilization at 37 to 41.7 degC at 10 uM incubated for 15 hrs in presence of G9a antibody by CETSA; format: cell-based
T3 sequence (whole entry): T1 sequence (Q96KQ7 whole entry)

| SMILES | IC50 [1] | other results |
| --- | --- | --- |
| COc1cc2c(NC3CCN(C)CC3)nc(CNC(=O)C3(C#N)CC3)nc2cc1OCCCN1CCCC1 | 111 nM |  |
| COc1cc2c(NC3CCN(C)CC3)nc(CNC(=O)CC#N)nc2cc1OCCCN1CCCC1 | 80 nM |  |
| C=C(C)C(=O)NCc1nc(NC2CCN(C)CC2)c2cc(OC)c(OCCCN3CCCC3)cc2n1 | 116 nM |  |
| C/C=C/C(=O)NCc1nc(NC2CCN(C)CC2)c2cc(OC)c(OCCCN3CCCC3)cc2n1 | 74 nM |  |
| CNc1nc2cc(OCCCN3CCCC3)c(OC)cc2n1C(C)C |  | IC50 [3]: < 100 nM; IC50 [4]: < 100 nM |
| CC#CC(=O)NCc1nc(NC2CCN(C)CC2)c2cc(OC)c(OCCCN3CCCC3)cc2n1 | 95 nM |  |
| C=CC(=O)NCc1nc(NC2CCN(C)CC2)c2cc(OC)c(OCCCN3CCCC3)cc2n1 | 60 nM |  |
| CCC(=O)NCc1nc(NC2CCN(C)CC2)c2cc(OC)c(OCCCN3CCCC3)cc2n1 | 64 nM |  |
| CCC(=O)N(C)c1nc(NC2CCN(C)CC2)c2cc(OC)c(OCCCN3CCCC3)cc2n1 | 5.8 nM | inhibition (MDA-MB-231 [6]): Tde; IC50 (MDA-MB-231 [2]): 9730 nM; IC50 (PANC-1): 14800 nM; inhibition (MDA-MB-231 [7]): inactive; Activity [8]: Active |
| COc1cc2c(NC3CCN(C)CC3)nc(CNC(=O)/C=C/CN(C)C)nc2cc1OCCCN1CCCC1 | 7.6 nM |  |
| C=CC(=O)N(C)c1nc(NC2CCN(Cc3ccccc3)CC2)c2cc(OC)c(OCCCN3CCCC3)cc2n1 | 5.9 nM | half-life at 0.1 µM [5]: 4.72 min; IC50 (MDA-MB-231 [2]): 460 nM; IC50 (PANC-1): 520 nM |
| C=CC(=O)N(C)c1nc(NCC2CCN(C)CC2)c2cc(OC)c(OCCCN3CCCC3)cc2n1 | 11 nM | IC50 (MDA-MB-231 [2]): > 40000 nM; IC50 (PANC-1): > 40000 nM |

Continued by falling IC50 [1], values first:

| IC50 [1] | SMILES | other results |
| --- | --- | --- |
| 5.7 nM | COc1cc2c(NC3CCN(C)CC3)nc(CNC(=O)CCl)nc2cc1OCCCN1CCCC1 |  |
| 4.4 nM | C=CC(=O)N(C)c1nc(NC2CCN(C(C)C)CC2)c2cc(OC)c(OCCCN3CCCC3)cc2n1 | IC50 (MDA-MB-231 [2]): 9600 nM; IC50 (PANC-1): 8220 nM |
| 3.9 nM | C=CC(=O)N(C)c1nc(NC2CCN(CCC)CC2)c2cc(OC)c(OCCCN3CCCC3)cc2n1 | IC50 (MDA-MB-231 [2]): 5480 nM; IC50 (PANC-1): 4750 nM |
| 3.51 nM | C=CC(=O)N(C)c1nc(NC2CCN(C3CCCCC3)CC2)c2cc(OC)c(OCCCN3CCCC3)cc2n1 | half-life at 0.1 µM [5]: 10 min; IC50 (MDA-MB-231 [2]): 2230 nM; IC50 (PANC-1): 2440 nM |
| 1.7 nM | COc1cc2c(NC3CCN(C)CC3)cc(CNC(=O)CCl)nc2cc1OCCCN1CCCC1 |  |
| 0.71 nM | CCC(=O)NCc1cc(NC2CCN(C)CC2)c2cc(OC)c(OCCCN3CCCC3)cc2n1 |  |
| 0.53 nM | C=C(C)C(=O)NCc1cc(NC2CCN(C)CC2)c2cc(OC)c(OCCCN3CCCC3)cc2n1 |  |
| 0.52 nM | C/C=C/C(=O)NCc1cc(NC2CCN(C)CC2)c2cc(OC)c(OCCCN3CCCC3)cc2n1 |  |
| 0.49 nM | C=CC(=O)NCc1cc(NC2CCN(C)CC2)c2cc(OC)c(OCCCN3CCCC3)cc2n1 |  |
| 0.42 nM | CC#CC(=O)NCc1cc(NC2CCN(C)CC2)c2cc(OC)c(OCCCN3CCCC3)cc2n1 |  |
